# Measurements as given in article PMC7004140, “In vitro hepatotoxicity of Petasites hybridus extract (Ze 339) depends on the concentration, the cytochrome activity of the cell system, and the species used” (Phytotherapy Research, 2019).
# Assays:
# HepG2 cells = test: WST-1 metabolic activity (cytotoxicity) in HepG2 cells; type: cell-based, human; conditions: HepG2, 250 μM (highest concentration), 4 hr
# Description: HepG2 and H‐4‐II‐E cells were differentiated for 24 hr. HepaRG cells were directly seeded in precoated 96‐well microtiter plates and were incubated in William's medium with general purpose supplements according to manufacturer's manual until adherence. All cells were treated with Ze 339 (up to 100 μg/ml) or petasin, isopetasin, neopetasin, petasol, isopetasol, petasin mixture, fatty acid mixture, and reconstituted extracts (up to 250 μM) for 4 hr.
# In the three cell lines, cytotoxicity was defined as a decrease in metabolic activity of ≥20% in the WST‐1 assay. At the end of the experiment, 10 μl WST‐1 reagent was added to each well. Plates were then incubated for 2 hr to allow for the reduction of WST‐1 reagent. Absorbance was measured using a microplate absorbance reader (Infinite M 200, Tecan Trading Ltd., Switzerland) at 450 nm, reference wavelength of 620 nm. Due to some matrix effect, the lowest concentration (0.02 μg/ml for Ze 339 and 3.9 μM for single constituents and mixtures) of each substance tested was defined as 100% metabolic activity. Results were expressed as percentage of the control metabolic activity, and data were presented as mean values ± SEM (n = 3–6).
# Concentration‐response analysis was done using the sigmoidal Hill equation: E(t) = E0 − Emax × C(t)^N/(IC50 ^N + C(t)^N), where E is the effect at time t, E0 the effect at baseline (time = 0), IC50 the concentration yielding 50% of the maximal effect (Emax), and N denotes the sigmoidicity coefficient (Origin 2017 Software). For statistical analysis, analysis of variance with Dunnett's multicomparison test was used to correct for multiplicity of testing (IBM SPSS Statistics software, version 25, IBM Corp., USA). The level of significance was ^* p < .05, ^** p < .01 and ^*** p < .001; NS = no significance.
# [1] = test system: S9 fractions from rat, dog and human; test: Metabolism by liver S9 fractions from different species; type: in vitro ADME, rat (Sprague Dawley), dog (beagle); conditions: 20 μM, 60 min incubation
# Text: (§1) The metabolism of petasin, isopetasin, and neopetasin was investigated using three different S9 fractions originating from three different species (isolated from rat, dog, and human liver homogenates containing cytochrome P450 isoforms) and isolated cytochromes of two different species (human and rat; rat analogues of the respective human cytochromes were used). For the expression of the different cytochromes, a baculovirus expression system was used according to supplier's manual. The S9 fractions or respectively single P450 cytochromes were used to mimic the liver metabolism by in vitro incubation.
# (§2) The assay was carried out in triplicate in 1.5 ml glass vials with a final concentration of 20 μM of petasin, isopetasin, and neopetasin. The incubation was performed in a 37°C warm water bath. S9 fractions were thawed slowly on ice. Four different approaches were pursued by testing: (a) petasin, neopetasin, and isopetasin before (0 min) and after 60 min incubations with S9 fraction; (b) petasin, neopetasin, and isopetasin without S9 fraction after 60 min incubation; (c) vehicle as negative controls; and (d) cofactors of S9 fraction after 60‐min incubation.
# (§3) A mixture of NADPH regeneration systems A (20‐fold) and B (100‐fold), phosphate buffer, and H2O was added, preincubated at 37°C, and shaken gently for 5 min. Afterwards, the recommended amount between 10 and 40 pmol/ml of enzyme or enzyme mixture was added according to manufacturer's instruction and incubated for further 60 min at 37°C and gently shaken. Afterwards, the reactions were stopped by addition of acetonitrile (400 μl). For the control sample, acetonitrile was added at 0 min incubation. The samples were centrifuged for 3 min at 10,000 × g. The supernatant was transferred to high‐performance liquid chromatography vials and analyzed by ultra‐performance liquid chromatography mass spectrometry (UPLC/MS). The UPLC analysis was performed with an UPLC Acquity H Class from Waters (Waters Corporation, Switzerland) including a quaternary high‐pressure gradient pump, an automatic sample injector, and a column thermostat. […]
# CYP2C6 (rat) = target: T1, CYP2C6 (rat) (Rattus norvegicus, UniProt P05178); test: Metabolism by isolated rat CYP2C6; type: in vitro ADME; conditions: petasins 20 μM, 60 min
# T1 construct: purchased BD Gentest (Switzerland); host or cells: baculovirus expression system
# T1 sequence (P05178 1-490): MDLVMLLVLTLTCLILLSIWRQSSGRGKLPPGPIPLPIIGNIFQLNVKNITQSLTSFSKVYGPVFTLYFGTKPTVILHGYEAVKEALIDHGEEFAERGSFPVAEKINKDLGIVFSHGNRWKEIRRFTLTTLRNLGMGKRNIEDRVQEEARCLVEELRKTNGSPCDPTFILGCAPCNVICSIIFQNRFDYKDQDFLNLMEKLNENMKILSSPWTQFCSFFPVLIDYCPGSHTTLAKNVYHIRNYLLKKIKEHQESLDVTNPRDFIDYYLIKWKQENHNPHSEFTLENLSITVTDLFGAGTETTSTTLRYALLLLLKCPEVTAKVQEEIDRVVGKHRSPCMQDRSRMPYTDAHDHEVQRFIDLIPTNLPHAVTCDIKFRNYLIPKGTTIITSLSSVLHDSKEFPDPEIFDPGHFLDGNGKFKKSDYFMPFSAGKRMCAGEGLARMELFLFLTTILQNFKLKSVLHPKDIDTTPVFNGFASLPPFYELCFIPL
# Text: as §1, §2, §3
# CYP2C11 (rat) = target: T2, CYP2C11 (rat) (Rattus norvegicus, UniProt P08683); test: Metabolism by isolated rat CYP2C11; type: in vitro ADME; conditions: petasins 20 μM, 60 min
# T2 construct: purchased BD Gentest (Switzerland); host or cells: baculovirus expression system
# T2 sequence (P08683 1-500): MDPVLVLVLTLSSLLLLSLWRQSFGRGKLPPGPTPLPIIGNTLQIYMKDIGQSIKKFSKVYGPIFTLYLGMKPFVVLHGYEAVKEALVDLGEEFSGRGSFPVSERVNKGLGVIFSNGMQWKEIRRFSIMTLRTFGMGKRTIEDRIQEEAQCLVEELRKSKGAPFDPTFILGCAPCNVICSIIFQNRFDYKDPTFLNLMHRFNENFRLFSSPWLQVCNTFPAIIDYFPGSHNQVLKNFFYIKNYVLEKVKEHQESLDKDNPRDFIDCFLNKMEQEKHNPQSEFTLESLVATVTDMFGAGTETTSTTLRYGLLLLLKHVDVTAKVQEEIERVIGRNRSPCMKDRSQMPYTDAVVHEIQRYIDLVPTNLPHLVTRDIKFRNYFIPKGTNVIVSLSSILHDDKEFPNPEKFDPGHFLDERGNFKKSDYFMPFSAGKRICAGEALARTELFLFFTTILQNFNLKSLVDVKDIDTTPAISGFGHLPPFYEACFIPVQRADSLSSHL
# Text: as §1, §2, §3
rank order of extent of metabolism by S9 fractions of different species [1],extent of metabolism by CYP2C6 (rat) (CYP2C6 (rat)) [%],extent of metabolism by CYP2C11 (rat) (CYP2C11 (rat)) [%],SMILES,metabolic activity compared with the reference concentration (3.9 μM) (HepG2 cells) [%]
rat>dog>human,75,84,C/C=C(/C)C(=O)O[C@@H]1CCC2=CC(=O)C(=C(C)C)C[C@]2(C)[C@H]1C [isopetasin],65.6
rat>dog>human,72,74,C=C(C)[C@H]1C[C@@]2(C)C(=CC1=O)CC[C@@H](OC(=O)/C(C)=C\C)[C@@H]2C [neopetasin],66.8
rat>dog>human,94,55,C=C(C)[C@@H]1C[C@@]2(C)C(=CC1=O)CC[C@@H](OC(=O)/C(C)=C\C)[C@@H]2C [petasin],60.9
